Assay results reported in the supplement of paper PMC10307832.

Experiments:
Test in all cases: relative viability (nuclei count vs DMSO), 5 days (fraction); higher = more cells survive
[1] = test system: NCI-H1437
Outline: (§1)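 After 5 days of treatment, lung cancer cells in 1536-well plates were fixed and stained in a single step (final 0.05% Triton X-100, 1% formaldehyde, 1 ug/ml Hoechst) and their nuclei counted on 4× images. Treatment had been applied by pin tool the day after seeding as one drug alone or as a fixed anchor-drug dose with five library-drug doses (not always all listed) in √10 steps. Relative viability is the nuclei count of treated wells divided by that of vehicle wells, and values are medians of duplicate plates.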

[2] = test system: NCI-H1650
Outline: as §1

[3] = test system: NCI-H1651
Outline: as §1

[4] = test system: NCI-H1792
Outline: as §1

[5] = test system: NCI-H1975
Outline: as §1

[6] = test system: NCI-H2087
Outline: as §1

[7] = test system: NCI-H520
Outline: as §1

[8] = test system: NCI-H647
Outline: as §1

[9] = test system: NCI-H661
Outline: as §1

[10] = test system: NCI-H727
Outline: as §1

[11] = test system: UMC-11
Outline: as §1

In the case of `O=c1[nH]c2ccccc2n1C1CCN(CCCC(c2ccc(F)cc2)c2ccc(F)cc2)CC1` [Pimozide] + CC(C)C[C@H](NC(=O)[C@H](Cc1ccccc1)NC(=O)c1cnccn1)B(O)O [Bortezomib] (partner 0.002 µM), the relative viability ([1]; first compound 0.253 µM) is reported as 0.45, the relative viability ([1]; first compound 0.8 µM) is reported as 0.423 and the relative viability ([1]; first compound 2.53 µM) is reported as 0.507. The relative viability ([1]; first compound 8 µM) was 0.403, the relative viability ([2]; first compound 0.08 µM) was 0.23 and the relative viability ([2]; first compound 0.253 µM) was 0.204. For the same molecule, the relative viability ([2]; first compound 0.8 µM) was 0.188, the relative viability ([2]; first compound 2.53 µM) was 0.177 and the relative viability ([2]; first compound 8 µM) was 0.178. For the same molecule, the relative viability ([3]; first compound 0.08 µM) was 0.903, the relative viability ([3]; first compound 0.8 µM) was 0.993 and the relative viability ([3]; first compound 2.53 µM) was 0.897. The relative viability ([3]; first compound 8 µM) was 0.972, the relative viability ([4]; first compound 0.08 µM) was 0.951 and the relative viability ([4]; first compound 0.253 µM) was 0.939. It also gave a relative viability ([4]; first compound 0.8 µM) of 0.894, a relative viability ([4]; first compound 2.53 µM) of 0.875 and a relative viability ([4]; first compound 8 µM) of 0.976. For the same molecule, the relative viability ([5]; first compound 0.08 µM) was 0.338, the relative viability ([5]; first compound 0.253 µM) was 0.39 and the relative viability ([5]; first compound 0.8 µM) was 0.398. The relative viability ([5]; first compound 2.53 µM) was 0.337, the relative viability ([5]; first compound 8 µM) was 0.355 and the relative viability ([6]; first compound 0.08 µM) was 0.86. For the same molecule, the relative viability ([6]; first compound 0.253 µM) was 0.815, the relative viability ([6]; first compound 0.8 µM) was 0.764 and the relative viability ([6]; first compound 2.53 µM) was 0.765. It also gave a relative viability ([6]; first compound 8 µM) of 0.585, a relative viability ([7]; first compound 0.08 µM) of 0.386 and a relative viability ([7]; first compound 0.253 µM) of 0.538. The relative viability ([7]; first compound 0.8 µM) was 0.556, the relative viability ([7]; first compound 2.53 µM) was 0.437 and the relative viability ([7]; first compound 8 µM) was 0.649. For the same molecule, the relative viability ([8]; first compound 0.08 µM) was 1.08, the relative viability ([8]; first compound 0.253 µM) was 0.855 and the relative viability ([8]; first compound 0.8 µM) was 0.851. The relative viability ([8]; first compound 2.53 µM) was 0.944, the relative viability ([8]; first compound 8 µM) was 0.529 and the relative viability ([9]; first compound 0.08 µM) was 0.672. It also gave a relative viability ([9]; first compound 0.253 µM) of 0.699, a relative viability ([9]; first compound 0.8 µM) of 0.719 and a relative viability ([9]; first compound 2.53 µM) of 0.725. It also gave a relative viability ([9]; first compound 8 µM) of 0.852, a relative viability ([10]; first compound 0.08 µM) of 0.729 and a relative viability ([10]; first compound 0.253 µM) of 0.788. For the same molecule, the relative viability ([10]; first compound 0.8 µM) was 0.884, the relative viability ([10]; first compound 2.53 µM) was 0.733 and the relative viability ([10]; first compound 8 µM) was 0.868. The relative viability ([11]; first compound 0.08 µM) was 0.716, the relative viability ([11]; first compound 0.253 µM) was 0.802 and the relative viability ([11]; first compound 0.8 µM) was 0.686. For the same molecule, the relative viability ([11]; first compound 2.53 µM) was 0.772 and the relative viability ([11]; first compound 8 µM) was 0.52.
